Source: patent publication US8106197B2, “Aminoheteroaryl compounds as protein kinase inhibitors” (Pfizer Inc., priority 2003, dated 2012)

Each compound was assayed against T1, HGFR (Homo sapiens, UniProt P08581) (assay: HGFR continuous-coupled spectrophotometric assay). Conditions: not given.
T1 construct: purchased Upstate 14-526
Type: biochemical

T1 sequence (P08581 974-1390 limits assumed): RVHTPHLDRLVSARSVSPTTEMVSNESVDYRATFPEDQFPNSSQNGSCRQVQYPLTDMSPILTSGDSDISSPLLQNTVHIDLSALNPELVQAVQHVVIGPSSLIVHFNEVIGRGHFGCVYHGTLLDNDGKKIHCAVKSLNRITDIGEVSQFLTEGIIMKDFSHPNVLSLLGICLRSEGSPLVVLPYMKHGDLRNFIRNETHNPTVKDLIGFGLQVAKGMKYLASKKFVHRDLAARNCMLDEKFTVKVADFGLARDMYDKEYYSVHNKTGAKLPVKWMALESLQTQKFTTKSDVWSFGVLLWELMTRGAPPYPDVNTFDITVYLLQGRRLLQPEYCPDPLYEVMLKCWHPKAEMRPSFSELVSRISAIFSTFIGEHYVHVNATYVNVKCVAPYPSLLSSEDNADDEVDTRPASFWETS

| Compound | % inhibition |
| --- | --- |
| Cc1cccnc1COc1cc(-c2ccc(C(=O)N3CCC(N4CCCC4)CC3)cc2)cnc1N | % inhibition = 16 |
| CCCCc1nc(COc2cc(-c3ccc(C(=O)N4CCC(N5CCCC5)CC4)cc3)cnc2N)c[nH]1 | % inhibition = 16 |
| Nc1ncc(-c2ccc(C(=O)N3CCC(N4CCCC4)CC3)cc2)cc1OCc1nnnn1Cc1ccccc1 | % inhibition = 19 |
| Nc1ncc(-c2ccc(C(=O)N3CCC(N4CCCC4)CC3)cc2)cc1OCc1c(F)ccc(F)c1Cl | % inhibition = 50 |
| Nc1ncc(-c2ccc(C(=O)N3CCC(N4CCCC4)CC3)cc2)cc1OCc1ccc(Cl)s1 | % inhibition = 19 |
| Cc1noc(C)c1COc1cc(-c2ccc(C(=O)N3CCC(N4CCCC4)CC3)cc2)cnc1N | % inhibition = 10 |
| Nc1ncc(-c2ccc(C(=O)N3CCC(N4CCCC4)CC3)cc2)cc1OCc1ccc(C(F)(F)F)cc1 | % inhibition = 10 |
| N#Cc1cccc(COc2cc(-c3ccc(C(=O)N4CCC(N5CCCC5)CC4)cc3)cnc2N)c1 | % inhibition = 12 |
| Nc1ncc(-c2ccc(C(=O)N3CCC(N4CCCC4)CC3)cc2)cc1OCc1ccccc1OC(F)(F)F | % inhibition = 21 |
| Nc1ncc(-c2ccc(C(=O)N3CCC(N4CCCC4)CC3)cc2)cc1OCc1cccc(-c2ccnc(Br)n2)c1 | % inhibition = 13 |
| Nc1ncc(-c2ccc(C(=O)N3CCC(N4CCCC4)CC3)cc2)cc1OCc1cc(F)c(F)cc1F | % inhibition = 12 |
| Cc1cnc2nc(COc3cc(-c4ccc(C(=O)N5CCC(N6CCCC6)CC5)cc4)cnc3N)nn2c1 | % inhibition = 17 |
| Nc1ncc(-c2ccc(C(=O)N3CCC(N4CCCC4)CC3)cc2)cc1OCc1nc2ncccc2o1 | % inhibition = 17 |
| Nc1ncc(-c2ccc(C(=O)N3CCC(N4CCCC4)CC3)cc2)cc1OCc1nccn1Cc1ccccc1 | % inhibition = 8 |
| Nc1ncc(-c2ccc(C(=O)N3CCC(N4CCCC4)CC3)cc2)cc1OCc1cccc(F)c1F | % inhibition = 24 |
| Cc1ccc(-c2nnc(COc3cc(-c4ccc(C(=O)N5CCC(N6CCCC6)CC5)cc4)cnc3N)o2)cc1 | % inhibition = 18 |
| CCc1ccc(COc2cc(-c3ccc(C(=O)N4CCC(N5CCCC5)CC4)cc3)cnc2N)nc1 | % inhibition = 15 |
| Cc1ccc(COc2cc(-c3ccc(C(=O)N4CCC(N5CCCC5)CC4)cc3)cnc2N)c(F)c1F | % inhibition = 39 |
| Nc1ncc(-c2ccc(C(=O)N3CCC(N4CCCC4)CC3)cc2)cc1OCc1ccc(Br)cc1F | % inhibition = 31 |
| Cc1[nH]cnc1COc1cc(-c2ccc(C(=O)N3CCC(N4CCCC4)CC3)cc2)cnc1N | % inhibition = 12 |
| Cn1nc(-c2ccccc2)c(COc2cc(-c3ccc(C(=O)N4CCC(N5CCCC5)CC4)cc3)cnc2N)c1Cl | % inhibition = 63 |
| Nc1ncc(-c2ccc(C(=O)N3CCC(N4CCCC4)CC3)cc2)cc1OCc1noc(-c2cccc(C(F)(F)F)c2)n1 | % inhibition = 27 |
| CC(Oc1cc(-c2ccc(C(=O)N3CCC(N4CCCC4)CC3)cc2)cnc1N)c1ccccc1 (stereo not shown) | % inhibition = 10 |
| Nc1ncc(-c2ccc(C(=O)N3CCC(N4CCCC4)CC3)cc2)cc1OCc1ccc(C(=O)NC2CCN(Cc3ccccc3)CC2)cc1 | % inhibition = 11 |
| Cc1oc(-c2cccc(F)c2)nc1COc1cc(-c2ccc(C(=O)N3CCC(N4CCCC4)CC3)cc2)cnc1N | % inhibition = 8 |
| Nc1ncc(-c2ccc(C(=O)N3CCC(N4CCCC4)CC3)cc2)cc1OCc1ccc(Cl)cc1Br | % inhibition = 28 |
| Nc1ncc(-c2ccc(C(=O)N3CCC(N4CCCC4)CC3)cc2)cc1OCc1ccc(C(F)(F)F)cc1F | % inhibition = 25 |
| Cc1ccc(F)c(COc2cc(-c3ccc(C(=O)N4CCC(N5CCCC5)CC4)cc3)cnc2N)c1F | % inhibition = 51 |

Same assay, conditions: Table 3; Ki(μM) or I(%); test concentration not given

| Compound | I(%) |
| --- | --- |
| C[C@@H]1CN(C(=O)c2ccc(-c3cnc4c(c3)OC(c3ccccc3)C(=O)N4)cc2)C[C@H](C)N1 (stereo partly shown) [Example I-618, 7-(4-(3,5-Dimethyl-piperazine-1-carbonyl)-phenyl]-2-phenyl-4H-pyrido[3,2-b](1,4]oxazin-3-one] | 0% |
| CC(Oc1cc(-c2ccc(C(=O)N3CCC(N4CCCC4)CC3)cc2)cnc1N)c1ccc(C(=O)NCCCN2CCCC2=O)cc1 (stereo not shown) [Example I-632, 4-(1-{2-Amino-5-[4-(4-pyrrolidin-1-yl-piperidine-1-carbonyl)-phenyl)-pyridin-3-yloxy}-ethyl)-[3-(2-oxo-pyrrolidin-1-yl)-propyl]-benzamide] | 0% |
| CCN1CCN(C(=O)c2ccc(-c3cnc(N)c(OCc4ccccc4)c3)cc2)CC1 [Example I-623, [4-(6-Amino-5-benzyloxy-pyridin-3-yl)-phenyl]-(4-ethyl-piperazin-1-yl)-methanone] | 7% |
| CC1CN(C(=O)c2ccc(-c3cnc(N)c(OCc4c(F)cccc4F)c3)cc2)CC(C)N1 (stereo not shown) [Example I-620, {4-[6-Amino-5-(2,6-difluoro-benzyloxy)-pyridin-3-yl]-phenyl}-(3,5-dimethyl-piperazin-1-yl)-methanone] | 5% |
| CC1CN(C(=O)c2ccc(-c3cnc(N)c(OCc4c(Cl)cccc4Cl)c3)cc2)CC(C)N1 (stereo not shown) [Example I-634, {4-[6-Amino-5-(2,6-dichloro-benzyloxy)-pyridin-3-yl]-phenyl}-(3,5-dimethyl-piperazin-1-yl)-methanone] | 10% |
| Cc1ccccc1COc1cc(-c2ccc(C(=O)N3CC(C)NC(C)C3)cc2)cnc1N (stereo not shown) [Example I-624, {4-[6-Amino-5-(2-methyl-benzyloxy)-pyridin-3-yl]-phenyl}-(3,5-dimethyl-piperazin-1-yl)-methanone] | 0% |
| CC(Oc1cc(-c2ccc(C(=O)N3CCC(N4CCCC4)CC3)cc2)cnc1N)c1ccc(C(=O)NC2CCN(Cc3ccccc3)CC2)cc1 (stereo not shown) [Example I-631] | 3% |

Same assay, conditions: Table 5; percent c-MET inhibition at 50 nM

| Compound | inhibition at 0.05 µM |
| --- | --- |
| CC(Cc1ccc(Cl)cc1)NC(=O)c1ccc(-c2cnc(N)c(OC(C)c3c(Cl)ccc(F)c3Cl)c2)cc1 (stereo not shown) | 58% |
| CC(NC(=O)c1ccc(-c2cnc(N)c(OC(C)c3c(Cl)ccc(F)c3Cl)c2)cc1)c1ccc(F)cc1 (stereo not shown) | 56% |
| COc1ccc(C(NC(=O)c2ccc(-c3cnc(N)c(OC(C)c4c(Cl)ccc(F)c4Cl)c3)cc2)C2CC2)cc1 (stereo not shown) | 67% |
| CC(Oc1cc(-c2ccc(C(=O)N[C@H](CO)C(C)C)cc2)cnc1N)c1c(Cl)ccc(F)c1Cl (stereo partly shown) | 74% |
| CC(Oc1cc(-c2ccc(C(=O)N3CCNC(=O)C3C)cc2)cnc1N)c1c(Cl)ccc(F)c1Cl (stereo not shown) | 86% |
| CC(Oc1cc(-c2ccc(C(=O)N[C@H](C)C3CCCCC3)cc2)cnc1N)c1c(Cl)ccc(F)c1Cl (stereo partly shown) [drawing 1068] | 60% |
| CC(Oc1cc(-c2ccc(C(=O)N3CCC(Cc4ccccc4)C3)cc2)cnc1N)c1c(Cl)ccc(F)c1Cl (stereo not shown) | 59% |

Same assay, conditions: Table 6; percent c-MET inhibition at 1 μM; read-out: % inhibition

| Compound | inhibition at 1 µM |
| --- | --- |
| CC(C)CNC(=O)c1ccc(Cl)c(CNC(=O)c2cnc(N)c(OCc3c(Cl)cccc3Cl)c2)c1 | 47% |
| Nc1ncc(C(=O)N2CCN(CCO)CC2)cc1OCc1c(Cl)cccc1Cl | 51% |
| Nc1ncc(C(=O)NCCN2CCN(Cc3ccccc3)CC2)cc1OCc1c(Cl)cccc1Cl | 36% |
| Nc1ncc(C(=O)N2CCC(Cc3cnccn3)CC2)cc1OCc1c(Cl)cccc1Cl | 72% |
| CN(CCc1ccccn1)CC1(O)CCN(C(=O)c2cnc(N)c(OCc3c(Cl)cccc3Cl)c2)C1 (stereo not shown) | 18% |
| CN(CCS(C)(=O)=O)C(=O)c1cnc(N)c(OCc2c(Cl)cccc2Cl)c1 | 26% |
| Nc1ncc(C(=O)N2CCN(c3ccc(Br)cn3)CC2)cc1OCc1c(Cl)cccc1Cl | 5% |
| Nc1ncc(C(=O)N2CCC3(CC2)CC(CCc2ccnnc2)CO3)cc1OCc1c(Cl)cccc1Cl (stereo not shown) | 37% |
| Cc1ccc2c(c1)C(NC(=O)c1cnc(N)c(OCc3c(Cl)cccc3Cl)c1)CCO2 (stereo not shown) | 17% |
| Nc1ncc(C(=O)N2CCC(O)(CN3CCCC3=O)C2)cc1OCc1c(Cl)cccc1Cl (stereo not shown) | 20% |
| Nc1ncc(C(=O)N2CCN(Cc3cccc4ccccc34)CC2)cc1OCc1c(Cl)cccc1Cl | 26% |
| Nc1ncc(C(=O)NCc2noc(C(=O)N3CC[C@H](O)C3)n2)cc1OCc1c(Cl)cccc1Cl | 26% |
| Nc1ncc(C(=O)NCCO)cc1OCc1c(Cl)cccc1Cl | 34% |
| Nc1ncc(C(=O)NC(CO)c2cccnc2)cc1OCc1c(Cl)cccc1Cl (stereo not shown) | 22% |
| Nc1ncc(C(=O)N[C@@H]2CCCC[C@H]2CO)cc1OCc1c(Cl)cccc1Cl | 24% |
| CN(C)C(=O)c1cnc(N)c(OCc2c(Cl)cccc2Cl)c1 | 10% |

| Compound | inhibition at 1 µM |
| --- | --- |
| Nc1ncc(C(=O)N2CCC(CCO)CC2)cc1OCc1c(Cl)cccc1Cl | 45% |
| Cn1ccnc1SCC1(O)CCCN(C(=O)c2cnc(N)c(CCc3c(Cl)cccc3Cl)c2)CC1 (stereo not shown) | 35% |
| Cc1ccc(F)c(CNC(=O)c2cnc(N)c(OCc3c(Cl)cccc3Cl)c2)c1F | 31% |
| Nc1ncc(C(=O)NC[C@H]2CC[C@H](c3nc4ccccc4[nH]3)CC2)cc1OCc1c(Cl)cccc1Cl | 38% |
| Nc1ncc(C(=O)N2CCC(Cc3ccc(F)cc3)CC2)cc1OCc1c(Cl)cccc1Cl | 41% |
| Cc1cc2cc(CNC(=O)c3cnc(N)c(OCc4c(Cl)cccc4Cl)c3)ccc2[nH]1 | 20% |
| CCS(=O)(=O)N1CCN(C(=O)c2cnc(N)c(OCc3c(Cl)cccc3Cl)c2)CC1 | 22% |
| Nc1ncc(C(=O)N2CCC3(CC2)COC(CCc2cc(O)n[nH]2)C3)cc1OCc1c(Cl)cccc1Cl (stereo not shown) | 34% |
| Nc1ncc(C(=O)N2CCN(CC(=O)N3CCCC3)CC2)cc1OCc1c(Cl)cccc1Cl | 32% |
| CN(C)c1ccc(CNC(=O)c2cnc(N)c(OCc3c(Cl)cccc3Cl)c2)cc1 | 30% |
| CCc1ccc(COCC2CCN(C(=O)c3cnc(N)c(OCc4c(Cl)cccc4Cl)c3)CC2)nc1 | 41% |
| COc1ccccc1CNC(=O)c1cnc(N)c(OCc2c(Cl)cccc2Cl)c1 | 32% |
| CCN(CC)CC1(O)CCN(C(=O)c2cnc(N)c(OCc3c(Cl)cccc3Cl)c2)CC1 | 71% |
| CC(=O)NCCNC(=O)c1cnc(N)c(OCc2c(Cl)cccc2Cl)c1 | 35% |
| Cc1noc([C@H]2CC[C@H](CNC(=O)c3cnc(N)c(OCc4c(Cl)cccc4Cl)c3)CC2)n1 | 3% |
